20 compounds from patent US10287288B2, “Factor XIa macrocyclic inhibitors bearing alkyl or cycloalkyl P2' moieties” (BRISTOL-MYERS SQUIBB COMPANY, priority 2015, dated 2019) can be followed below.

Where two headings read alike, the source gives them in different places.

The target in data set [1] is T1, purified human Factor XIa (Homo sapiens, UniProt P03951).
T1 construct: purchased Haematologic Technologies
Briefly: Factor XIa inhibition assay (chromogenic substrate hydrolysis, Ki). It counts as biochemical. Particulars: substrate S-2366, pH 7.4.

Data set [2] has as its target T2, purified human plasma kallikrein (Homo sapiens, UniProt P03952).
T2 construct: Plasma prekallikrein is a zymogen of a trypsin-like serine protease; purchased Enzyme Research Laboratories
Briefly: Plasma kallikrein inhibition assay (chromogenic substrate hydrolysis, Ki). The data set is classed as biochemical. Particulars: substrate S-2302, pH 7.5.

The conditions of data set [3]: rcm bond.

T2 sequence (P03952 391-638 limits assumed): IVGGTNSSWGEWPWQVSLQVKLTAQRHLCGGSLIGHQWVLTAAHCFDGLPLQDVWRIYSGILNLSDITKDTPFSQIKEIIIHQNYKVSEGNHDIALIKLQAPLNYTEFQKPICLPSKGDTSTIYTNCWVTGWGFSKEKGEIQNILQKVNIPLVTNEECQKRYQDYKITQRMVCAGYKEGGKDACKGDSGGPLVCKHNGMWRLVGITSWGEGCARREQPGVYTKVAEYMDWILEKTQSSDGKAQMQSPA
T2 sequence (P03952 20-390 partner limits assumed): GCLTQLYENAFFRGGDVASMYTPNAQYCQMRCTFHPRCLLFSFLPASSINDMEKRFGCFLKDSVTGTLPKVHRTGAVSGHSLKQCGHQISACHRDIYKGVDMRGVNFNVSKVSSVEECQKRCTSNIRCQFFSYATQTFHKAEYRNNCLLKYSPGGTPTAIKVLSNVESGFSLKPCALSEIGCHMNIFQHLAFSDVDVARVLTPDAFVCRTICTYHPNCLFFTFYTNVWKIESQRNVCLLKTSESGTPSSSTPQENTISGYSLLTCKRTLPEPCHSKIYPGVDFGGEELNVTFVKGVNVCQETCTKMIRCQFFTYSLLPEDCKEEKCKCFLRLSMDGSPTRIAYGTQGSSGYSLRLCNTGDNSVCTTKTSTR
T1 sequence (P03951 388-625 limits assumed): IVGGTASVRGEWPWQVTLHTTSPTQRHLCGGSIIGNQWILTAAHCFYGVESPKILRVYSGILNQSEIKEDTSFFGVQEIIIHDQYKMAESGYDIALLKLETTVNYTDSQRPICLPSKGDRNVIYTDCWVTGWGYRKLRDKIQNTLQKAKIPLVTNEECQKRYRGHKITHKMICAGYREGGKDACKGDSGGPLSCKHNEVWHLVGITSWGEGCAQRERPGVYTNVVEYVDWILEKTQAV
T1 sequence (P03951 19-387 partner limits assumed): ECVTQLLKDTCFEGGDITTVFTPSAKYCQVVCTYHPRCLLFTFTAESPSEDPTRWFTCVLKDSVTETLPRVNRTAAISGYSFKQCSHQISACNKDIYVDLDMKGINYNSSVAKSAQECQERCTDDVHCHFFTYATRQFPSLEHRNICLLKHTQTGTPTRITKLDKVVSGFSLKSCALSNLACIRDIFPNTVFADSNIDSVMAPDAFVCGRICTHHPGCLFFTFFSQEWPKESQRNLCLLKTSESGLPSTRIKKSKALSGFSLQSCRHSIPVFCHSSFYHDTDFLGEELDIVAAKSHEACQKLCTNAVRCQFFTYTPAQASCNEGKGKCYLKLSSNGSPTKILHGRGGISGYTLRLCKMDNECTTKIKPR

The Ki is the dissociation constant of the complex between target and ligand, obtained from inhibition or displacement. A lower Ki goes with tighter binding. For the compound `O=C1NCC/C=C/C[C@H](n2cnc(-c3cc(Cl)ccc3-n3cc(Cl)nn3)cc2=O)c2cc(ccn2)[C@H]2C[C@@H]12` [Example 33, (2S,4R,9E,12S)-12-{4-[5-Chloro-2-(4-chloro-1H-1,2,3-triazol-1-yl)phenyl]-6-oxo-1,6-dihydropyrimidin-1-yl}-6,14-diazatricyclo[11.3.1.0^2,^4]heptadeca-1(17),9,13,15-tetraen-5-one], the inhibitory constant (Ki) came to 355 nM in data set [1] and 3610 nM in data set [2].

For the compound `C[C@@H]1CCC[C@H](n2cnc(-c3cc(Cl)ccc3-n3cc(C(F)(F)F)nn3)cc2=O)c2cccc(c2)C[C@H](CC#N)NC1=O` [Example 5, 2-[(3R,6R,10S)-10-(4-{5-chloro-2-[4-(trifluoromethyl)-1H-1,2,3-triazol-1-yl]phenyl}-6-oxo-1,6-dihydropyrimidin-1-yl)-6-methyl-5-oxo-4-azabicyclo[9.3.1]pentadeca-1(15),11,13-trien-3-yl]acetonitrile], the values for the Ki in data set [1] and in data set [2] were 284 nM and 4210 nM, respectively.

For `Cc1c(C(=O)N[C@H]2CCC[C@@H](C)C(=O)N[C@@H](CC#N)Cc3cccc2c3)ncn1-c1cccc(Cl)c1F` [Example 6, 1-(3-chloro-2-fluorophenyl)-N-[(3R,6R,10S)-3-(cyanomethyl)-6-methyl-5-oxo-4-azabicyclo[9.3.1]pentadeca-1(15),11,13-trien-10-yl]-5-methyl-1H-imidazole-4-carboxamide], the Ki in data set [1] was 986 nM; in data set [2] it was 6200 nM.

As for `C[C@@H]1CCC[C@H](n2cnc(-c3cc(Cl)ccc3-n3cc(C(F)(F)F)nn3)cc2=O)c2cccc(c2)C2C(CCCN2C)NC1=O` (single isomer, unassigned) [Example 28], the results for the Ki in data set [1] and in data set [2] were 1130 nM and 11200 nM, respectively.

Take `COC(=O)NCC[C@@H]1Cc2cccc(c2)[C@@H](n2cnc(-c3cc(Cl)ccc3-n3cc(C(F)(F)F)nn3)cc2=O)CCC[C@@H](C)C(=O)N1` [Example 8, methyl N-{2-[(3S,6R,10S)-10-(4-{5-chloro-2-[4-(trifluoromethyl)-1H-1,2,3-triazol-1-yl]phenyl}-6-oxo-1,6-dihydropyrimidin-1-yl)-6-methyl-5-oxo-4-azabicyclo[9.3.1]pentadeca-1(15),11,13-trien-3-yl]ethyl}carbamate]: the Ki was no more than 5 nM in data set [1] and 1790 nM in data set [2].

As for `COC(=O)NCC[C@H]1Cc2cccc(c2)[C@@H](n2cnc(-c3cc(Cl)ccc3-n3cc(C(F)(F)F)nn3)cc2=O)CCC[C@@H](C)C(=O)N1` [Example 4, methyl N-{2-[(3R,6R,10S)-10-(4-{5-chloro-2-[4-(trifluoromethyl)-1H-1,2,3-triazol-1-yl]phenyl}-6-oxo-1,6-dihydropyrimidin-1-yl)-6-methyl-5-oxo-4-azabicyclo[9.3.1]pentadeca-1(15),11,13-trien-3-yl]ethyl}carbamate], the Ki in data set [1] came to 130 nM; in data set [2], 8270 nM.

In data set [1], `CC(=O)N1CCCC2NC(=O)[C@H](C)CCC[C@H](n3cnc(-c4c(-n5cc(Cl)nn5)ccc(Cl)c4F)cc3=O)c3cccc(c3)C21` (single isomer, unassigned) [Example 25] showed a Ki of 1420 nM.

For `C[C@@H]1CCC[C@H](n2cnc(-c3cc(Cl)ccc3-n3cc(C(F)(F)F)nn3)cc2=O)c2cccc(c2)C[C@@H](CC#N)NC1=O` [Example 9, 2-[(3S,6R,10S)-10-(4-{5-chloro-2-[4-(trifluoromethyl)-1H-1,2,3-triazol-1-yl]phenyl}-6-oxo-1,6-dihydropyrimidin-1-yl)-6-methyl-5-oxo-4-azabicyclo[9.3.1]pentadeca-1(15),11,13-trien-3-yl]acetonitrile], the Ki in data set [1] is 5 nM; in data set [2] it was 1290 nM.

As to `C[C@@H]1CCC[C@H](n2cnc(-c3cc(Cl)ccc3-n3cc(C(F)(F)F)nn3)cc2=O)c2cccc(c2)C[C@H](CO)NC1=O` [Example 2, (3R,6R,10S)-10-(4-{5-chloro-2-[4-(trifluoromethyl)-1H-1,2,3-triazol-1-yl]phenyl}-6-oxo-1,6-dihydropyrimidin-1-yl)-3-(hydroxymethyl)-6-methyl-4-azabicyclo[9.3.1]pentadeca-1(15),11,13-trien-5-one], the Ki in data set [1] is 445 nM. This lies in the sub-micromolar range.

The compound `CC(C)(C)OC(=O)N[C@H]1CC=CCCNC(=O)[C@@H]2C[C@@H]2c2ccnc1c2` registered a ring closure, isolated yield in data set [3] (from C=CCCNC(=O)[C@@H]1C[C@@H]1c1ccnc([C@H](CC=C)NC(=O)OC(C)(C)C)c1, 13-membered ring, Grubbs II (0.2 eq)/pTsOH, DCM, 4.7 mM, 40.0 °C, 2.0 h) of 65%.

In the case of `C[C@@H]1CCC[C@H](n2cnc(-c3cc(Cl)ccc3-n3cc(C(F)(F)F)nn3)cc2=O)c2cccc(c2)C2C(CCCN2C)NC1=O` (single isomer, unassigned) [Example 27], the Ki in data set [1] was less than 5 nM; in data set [2], 409 nM.

In data set [1], `COC(=O)[C@H]1Cc2cccc(c2)[C@@H](n2cnc(-c3cc(Cl)ccc3-n3cc(Cl)nn3)cc2=O)CCC[C@@H](C)C(=O)N1` [Example 1, methyl (3R,6R,10S)-10-{4-[5-chloro-2-(4-chloro-1H-1,2,3-triazol-1-yl)phenyl]-6-oxo-1,6-dihydropyrimidin-1-yl}-6-methyl-5-oxo-4-azabicyclo[9.3.1]pentadeca-1(15),11,13-triene-3-carboxylate] had a Ki of 53 nM. This lies in the double-digit nanomolar range.

`C[C@@H]1/C=C/C[C@H](NC(=O)OCc2ccccc2)c2cccc(c2)C[C@H](CC#N)NC1=O`: in data set [3] (from C=CC[C@H](NC(=O)OCc1ccccc1)c1cccc(C[C@H](CC#N)NC(=O)[C@H](C)C=C)c1, 12-membered ring, Grubbs II (0.2 eq), microwave 30 min, DCE, 8.5 mM, 120.0 °C, 0.5 h), the ring closure, isolated yield is 56.2%.

In the case of `O=C1NCCCCC[C@H](n2cnc(-c3cc(Cl)ccc3-n3cc(Cl)nn3)cc2=O)c2cc(ccn2)[C@H]2C[C@@H]12` [Example 31, (2S,4R,12S)-12-{4-[5-Chloro-2-(4-chloro-1H-1,2,3-triazol-1-yl)phenyl]-6-oxo-1,6-dihydropyrimidin-1-yl}-6,14-diazatricyclo[11.3.1.0^2,^4]heptadeca-1(17),13,15-trien-5-one], the results for the Ki in data set [1] and in data set [2] were 12.7 nM and 81.4 nM, respectively.

In data set [1], `CNC(=O)OC[C@H]1Cc2cccc(c2)[C@@H](n2cnc(-c3cc(Cl)ccc3-n3cc(C(F)(F)F)nn3)cc2=O)CCC[C@@H](C)C(=O)N1` [Example 3, [(3R,6R,10S)-10-(4-{5-chloro-2-[4-(trifluoromethyl)-1H-1,2,3-triazol-1-yl]phenyl}-6-oxo-1,6-dihydropyrimidin-1-yl)-6-methyl-5-oxo-4-azabicyclo[9.3.1]pentadeca-1(15),11,13-trien-3-yl]methyl N-methylcarbamate] registered a Ki of 109 nM.

Consider `O=C1NCCCCC[C@H](n2cnc(-c3cc(Cl)ccc3-n3cc(Cl)nn3)cc2=O)c2cc(ccn2)[C@@H]2C[C@H]12` [Example 34, (2R,4S,12S)-12-{4-[5-Chloro-2-(4-chloro-1H-1,2,3-triazol-1-yl)phenyl]-6-oxo-1,6-dihydropyrimidin-1-yl}-6,14-diazatricyclo[11.3.1.0^2,^4]heptadeca-1(17),13,15-trien-5-one], for which the Ki in data set [1] worked out at 96 nM; in data set [2], 3100 nM.

With `CC(=O)N1CCCC2NC(=O)[C@H](C)CCC[C@H](n3cnc(-c4c(-n5cc(Cl)nn5)ccc(Cl)c4F)cc3=O)c3cccc(c3)C21` (single isomer, unassigned) [Example 26], the figures for the Ki in data set [1] and in data set [2] were 120 nM and 6970 nM, respectively.

Regarding `O=C1CCCc2ccnc(c2)[C@@H](n2cnc(-c3cc(Cl)ccc3-n3cc(Cl)nn3)cc2=O)CCCCCN1` [Example 32, (12S)-12-{4-[5-Chloro-2-(4-chloro-1H-1,2,3-triazol-1-yl)phenyl]-6-oxo-1,6-dihydropyrimidin-1-yl}-6,14-diazabicyclo[11.3.1]heptadeca-1(17),13,15-trien-5-one], the results for the Ki in data set [1] and in data set [2] were 27.8 nM and 1890 nM, respectively.

In data set [3] (from C=CC[C@H](NC(=O)OC(C)(C)C)c1cc(C(C)(C)CNC(=O)[C@H](C)C=C)ccn1, 12-membered ring, Grubbs II (0.4 eq), microwave 30 min, DCE, 49.8 mM, 120.0 °C, 0.5 h), `C[C@@H]1/C=C/C[C@H](NC(=O)OC(C)(C)C)c2cc(ccn2)C(C)(C)CNC1=O` registered a ring closure, isolated yield of 43%.

In turn, `COC(=O)[C@H]1Cc2cccc(c2)[C@@H](NC(=O)OCc2ccccc2)C/C=C/[C@@H](C)C(=O)N1` had a ring closure, isolated yield in data set [3] (from C=CC[C@H](NC(=O)OCc1ccccc1)c1cccc(C[C@@H](NC(=O)[C@H](C)C=C)C(=O)OC)c1, 12-membered ring, Grubbs II (0.2 eq), microwave 45 min, DCE, 9.8 mM, 120.0 °C, 0.75 h) of 53.2%.
